From patent US8314142B2, “Dimers of artemisinin derivatives, preparation thereof and therapeutic use thereof” (Sanofi, priority 2006, dated 2012)

tested on: HCT116 cells; assay: Inhibition of cell proliferation of HCT116 cells (14C-thymidine incorporation, 96 hours); format: cell-based; conditions: Homo sapiens, HCT-116, 14C-thymidine incorporation after 96 hours
Procedure: The products according to the invention have been the subject of pharmacological trials which make it possible to determine their antiproliferative activity. It was determined by measuring the inhibition of cell proliferation of HCT116 cells. The cells are inoculated in a cell culture medium at a concentration of 10 000 cells per well, in 0.17 ml of medium, and 20 μl of test product, at various concentrations, and 10 μl of Thymidine [methyl-14C] (100 μCi/ml—specific activity 47.90 mCi/mmol; NEN Technologies reference NEC568 batch 3550-001) are added, and then the cells are incubated at 37° C. and 5% CO2.
Medium used for the culture of HCT116 cells: DMEM medium 2 mM L-glutamine, 200 IU/ml penicillin, 200 μg/ml streptomycin and 10% (V/V) fetal calf serum (Life Technologies).
After 96 hours, the incorporation of ^14C-thymidine is counted in a liquid scintillation counter 1450 Microbeta Wallac Trilux. The results R are expressed in cpm (counts per minute) and converted to percentage of growth inhibition GI % by first subtracting the mean of the number of cpm of the wells without cells B and then by dividing by the number of cpm of the wells of the untreated cells C comprising 20 μl of medium for dilution of the product containing 1% of ethanol (GI %=(R−B)×100/C %).
The IC50 values are calculated with the aid of the equation 205 of the XLFit software (IDBS company, UK) by nonlinear regression analysis using the Marquardt algorithm (Donald W. MARQUARDT, J. Soc. industry appl., vol. 11, No. 2, June, 1963).

Row | SMILES | IC50 [nM]
1 | C[C@@H]1CC[C@H]2[C@@H](C)[C@](OCCS(=O)(=O)CCO[C@@]3(C(F)(F)F)O[C@@H]4O[C@]5(C)CC[C@H]6[C@H](C)CC[C@@H]([C@H]3C)[C@@]46OO5)(C(F)(F)F)O[C@@H]3O[C@@]4(C)CC[C@@H]1[C@]32OO4 [EX3, (3S,5aS,6R,8aS,9R,10R,12R,12aR,3′S,5′aS,6′R,8′aS,-9′R,10′R,12′R,12′aR)-10,10′-[sulfonylbis(2,1-ethanediyloxy)]bis[decahydro-3,6,9-trimethyl-10-tri-fluoromethyl)-3,12-epoxy-12H-pyrano[4,3-j]-1,2-benzodioxepine] | 21
2 | C[C@@H]1CC[C@H]2[C@@H](C)[C@](OCC[S+]([O-])CCO[C@@]3(C(F)(F)F)O[C@@H]4O[C@]5(C)CC[C@H]6[C@H](C)CC[C@@H]([C@H]3C)[C@@]46OO5)(C(F)(F)F)O[C@@H]3O[C@@]4(C)CC[C@@H]1[C@]32OO4 [EX2] | 23
3 | C[C@@H]1CC[C@H]2[C@@H](C)[C@](OCCSCCO[C@@]3(C(F)(F)F)O[C@@H]4O[C@]5(C)CC[C@H]6[C@H](C)CC[C@@H]([C@H]3C)[C@@]46OO5)(C(F)(F)F)O[C@@H]3O[C@@]4(C)CC[C@@H]1[C@]32OO4 [EX1] | 47
4 | C[C@@H]1CC[C@H]2[C@@H](C)[C@](OCCN(C)CCO[C@@]3(C(F)(F)F)O[C@@H]4O[C@@]5(C)CC[C@H]6[C@H](C)CC[C@@H]([C@H]3C)[C@@]46OO5)(C(F)(F)F)O[C@@H]3O[C@@]4(C)CC[C@@H]1[C@]32OO4 [EX8, 2-[[(3R,5aS,6R,8aS,9R,10R,12R,12aR)-decahydro-3,6,9-trimethyl-10-(trifluoromethyl)-3,12-epoxy-12H-pyrano[4,3-j]-1,2-benzodioxepin-10-yl]oxy]-N-[2-[[(3R,5aS,6R,8aS,9R,10R,12R,12aR)-decahydro-3,6,9-trimethyl-10-(trifluoromethyl)-3,12-epoxy-12H-pyrano[4,3-j]-1,2-benzodioxepin-10-yl]oxy]ethyl]-N-methylethanamine] | 30
